Experimental data as given in patent US20230277543A1, “COMPOSITIONS AND METHODS FOR TREATING DISEASES ASSOCIATED WITH ELEVATED ARGININE VASOPRESSIN LEVELS” (The United States Government As Represented By The …, priority 2022, published 2023).

Legend:
AVP gene = test: mRNA expression of AVP in primary cultures of rat hypothalamic cells; assay type: cell-based
Description: Alternatively, the observed in vivo effect of ticagrelor in mice can be the due to a ticagrelor metabolite such as AR-C124910XX or AR-C133913XX, which may bind to hypothalamic cells at a site other than P2Y12 receptor and exert inhibitory effect on the production of AVP. […] Based on this observation on cultured hypothalamic cells and the unequivocal data obtained from the primary cultures of rat inner medullary collecting duct cells, the observed in vivo effect of ticagrelor on decreased AVP production is mediated by the action of one or both metabolites of ticagrelor (AR-C124910XX or AR-C133913XX).

[1] = major metabolite of ticagrelor; cited from earlier work
rodent models of ADPKD = details: by reducing cAMP production in the kidney; cited from earlier work
rats = details: administration to rats
Description: The blockade of P2Y12 receptor by PSB-0739 on AVP gene expression in cultured rat hypothalamic cells was studied.

mice = test: urinary concentrating ability and AVP production in mice; assay type: in vivo; details: for urinary excretion of AVP: ticagrelor effect dose-dependent
Procedure: The effect of prasugrel on urinary concentration ability in mice was also tested and the same findings as clopidogrel were observed.
Both clopidogrel bisulfate and prasugrel belong to thienopyridine group of drugs, and thus both are prodrugs that need to be metabolized in the liver releasing their active metabolites that block the platelet P2Y12 receptor.

[2] = tested on: rat inner medullary collecting duct cells; test: dDAVP-induced AQP2/AQP3 mRNA expression and cAMP production in primary cultures of rat inner medullary collecting duct cells; assay type: cell-based
Description: In sum, ticagrelor binds to P2Y12 receptor in medullary collecting duct cells and enhances the effect on dDAVP on the mRNA expression of AQP2 and AQP3 water channels and cAMP production. Thus, the observed decreased urinary concentration in ticagrelor-treated mice was not because of the effect of ticagrelor on renal medullary collecting duct.

vasopressin V2 receptor = vasopressin V2 receptor (Homo sapiens, UniProt P30518); details: chronic blockade of vasopressin V2 receptor; cited from earlier work
Chain of vasopressin V2 receptor (P30518 whole entry, species assumed): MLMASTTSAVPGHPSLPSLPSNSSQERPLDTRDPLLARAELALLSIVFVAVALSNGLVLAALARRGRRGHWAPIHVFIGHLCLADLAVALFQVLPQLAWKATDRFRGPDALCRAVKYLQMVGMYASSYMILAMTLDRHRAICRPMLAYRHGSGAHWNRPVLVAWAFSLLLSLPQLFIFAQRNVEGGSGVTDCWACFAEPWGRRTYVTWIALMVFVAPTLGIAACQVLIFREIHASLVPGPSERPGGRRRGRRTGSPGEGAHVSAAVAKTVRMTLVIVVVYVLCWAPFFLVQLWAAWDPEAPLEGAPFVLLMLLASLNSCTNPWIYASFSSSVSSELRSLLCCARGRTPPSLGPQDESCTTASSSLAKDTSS

patients = details: in a vast majority of patients; cited from earlier work
CYP3A4 = CYP3A4 (Homo sapiens, UniProt P08684); details: cited from earlier work
Chain of CYP3A4 (P08684 whole entry): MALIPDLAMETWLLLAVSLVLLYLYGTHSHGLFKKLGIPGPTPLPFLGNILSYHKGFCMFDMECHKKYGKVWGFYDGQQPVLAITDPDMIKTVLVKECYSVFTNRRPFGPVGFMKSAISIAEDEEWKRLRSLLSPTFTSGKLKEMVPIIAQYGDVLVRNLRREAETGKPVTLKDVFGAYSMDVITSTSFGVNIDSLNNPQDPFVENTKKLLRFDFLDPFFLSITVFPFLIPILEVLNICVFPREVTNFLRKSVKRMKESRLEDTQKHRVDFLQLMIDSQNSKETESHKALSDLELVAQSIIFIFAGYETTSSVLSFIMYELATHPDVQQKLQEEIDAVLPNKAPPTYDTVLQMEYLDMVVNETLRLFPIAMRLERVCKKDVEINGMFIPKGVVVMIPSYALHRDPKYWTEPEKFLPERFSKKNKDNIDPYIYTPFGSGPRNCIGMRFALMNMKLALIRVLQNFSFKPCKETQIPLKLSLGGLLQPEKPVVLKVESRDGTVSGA

Nc1ncnc2c1ncn2[C@@H]1O[C@H](COP(=O)(O)OP(=O)(O)O)[C@@H](O)[C@H]1O [ADP]
effect of PSB-0739 on AVP gene expression (AVP gene; cultured rat hypothalamic cells, combination with PSB-0739, 24 hours): blocked

CCCSc1nc(N[C@@H]2C[C@H]2c2ccc(F)c(F)c2)c2nnn([C@@H]3C[C@H](O)[C@@H](O)[C@H]3O)c2n1 [AR-C124910XX]
where the metabolite is found [1]: mostly in plasma and feces

CCCSc1nc(N)c2nnn([C@@H]3C[C@H](OCCO)[C@@H](O)[C@H]3O)c2n1 [AR-C133913XX]
where the metabolite is found [1]: urine and feces

Cc1ccccc1C(=O)Nc1ccc(C(=O)N2CCCC(N(C)C)c3ccccc32)cc1 (centres unmarked) [OPC-31260]
cystogenesis (rodent models of ADPKD): consistently inhibited

Nc1c(S(=O)(=O)O)cc(Nc2ccc(Nc3ccccc3)c(S(=O)(=O)O)c2)c2c1C(=O)c1ccccc1C2=O [PSB-0739]
mRNA expression of the AVP gene (AVP gene; cultured rat hypothalamic cells, exposed for 24 hours, blockade of P2Y12 receptor): significantly increased

COC(=O)[C@H](c1ccccc1Cl)N1CCc2sccc2C1 [clopidogrel]
AVP production (rats): increase

CC(=O)Oc1cc2c(s1)CCN(C(C(=O)C1CC1)c1ccccc1F)C2 (centres unmarked) [prasugrel]
protein abundance of AQP2 in the kidney medulla (mice; administered to mice): significantly increased
urine concentrating ability (mice; administered to mice): significantly increased
urinary excretion of AVP (mice; administered to mice): significantly increased

CCCSc1nc(N[C@@H]2C[C@H]2c2ccc(F)c(F)c2)c2nnn([C@@H]3C[C@H](OCCO)[C@@H](O)[C@H]3O)c2n1 [ticagrelor]
urine concentrating ability (mice; administered to mice): dilution of urine
urinary excretion of AVP (mice; administered to mice): decreased
urine flow (mice; mice, dose-dependent): increased
dDAVP-induced increase in cAMP production [2]: did not interfere
mRNA expression of dDAVP-induced AQP2 water channel protein [2]: concentration-dependent increases
mRNA expression of dDAVP-induced AQP3 water channel protein [2]: concentration-dependent increases
baseline mRNA expression of AVP (AVP gene; cultured hypothalamic cells): ~1.8 fold

Cc1ccccc1C(=O)Nc1ccc(C(=O)N2CCCC(O)c3cc(Cl)ccc32)c(C)c1 (centres unmarked) [tolvaptan]
endogenous production of AVP (vasopressin V2 receptor): increased
adverse effects (patients): severe polyuria (loss of water in the urine), nocturia (frequent urination in the night), thirst and dry mouth
cystogenesis (rodent models of ADPKD): consistently inhibited
metabolizing enzyme system (CYP3A4): metabolized by the CYP3A4 system
